{"source": "patent US9206124B2", "about": "“Treatment of drug-resistant cancer with 2-aryl-2-(3-indolyl) acetohydroxamates” (New Mexico Technical Research Foundation, priority 2013, dated 2015)", "key": {"[1]": {"test_system": "GBM 031810 neurosphere cells", "experiment": "Antiproliferative effect on patient-derived GBM neurosphere culture", "type": "cell-based", "conditions": "Homo sapiens, average IC50 ± SD from three determinations, read-out: GI50 in vitro, GBM 031810 (average IC50)", "excerpt": "Given the ability of the hydroxamates to overcome drug resistance a few select compounds were further evaluated against glioma cells grown in neurosphere conditions, which are known to promote the growth of stem-like cells from human glioma tissue. Indeed, the neurospheres show the ability of self-renewal by regrowing in culture from individual cells, and can differentiate into multiple neural lineages and recapitulate human gliomas on both histological and genetic levels more faithfully than serum cultured glioma cell lines when injected into the brains of mice. Because, neurosphere cells are generally resistant to radiation and chemotherapy, the micromolar to submicromolar activity of the hydroxamates against the glioma neurosphere cell cultures is noteworthy (Table 4). […] It is worthy of note, that the unmethylated MGMT promoter leading to such temozolomide resistance is found in about half of all GBM patients, who respond poorly to temozolomide chemotherapy. To date, no alternative treatment exists for this group of patients.\nHuman cancer cell lines were obtained from the American Type Culture Collection (ATCC, Manassas, Va., USA), the European Collection of Cell Culture (ECACC, Salisbury, UK) and the Deutsche Sammlung von Mikroorganismen and Zellkulturen (DSMZ, Braunschweig, Germany). Human cervical adenocarcinoma HeLa cells were cultured in DMEM supplemented with 10% fetal bovine serum (FBS). Human mammary carcinoma MCF-7 cells were cultured in RPMI supplemented with 10% FBS. The U87 cells (ATCC HTB-14) were cultured in DMEM culture medium, while the A549 cells (DSMZ ACC107) were cultured in RPMI culture medium supplemented with 10% heat-inactivated FBS. The glioblastoma multiforme Hs683 (ATCC HTB-138) and the T98G (ATCC CRL-1690) cell lines were cultivated in DMEM supplemented with 10% FBS. The Human uterine sarcoma MES-SA and MES-SA/Dx5 cells were cultured in RPMI-1640 medium supplemented with 10% FBS with MES SA/Dx5 maintained in the presence of 500 nM Doxorubicin (Sigma). SKMEL-28 cells (ATCC HTB72) and U373 glioblastoma cells (ECACC 08061901) were cultured in RPMI culture medium supplemented with 10% heat-inactivated FBS. Cell culture media were supplemented with 4 mM glutamine (Lonza code BE17-605E), 100 μg/mL gentamicin (Lonza code 17-5182), and penicillin-streptomycin (200 units/ml and 200 μg/ml) (Lonza code 17-602E). Neurosphere culture GBM 031810 was established using known methods and maintained in Neurobasal medium (Invitrogen Carlsbad, Calif.) with B27 supplement (20 ul/ml; Invitrogen), Glutamax (10 ul/ml; Invitrogen), fibroblast growth factor-2 (20 ng/ml; Peprotech, Rocky Hill, N.J., USA), epidermal growth factor (20 ng/ml; Peprotech), heparin (32 IE/ml; Sigma Aldrich, St. Louis, Mo.), and penicillin-streptomycin (1×, Invitrogen). […]"}, "[2]": {"test_system": "MES-SA uterine sarcoma cells", "experiment": "MTT antiproliferative assay, MES-SA", "type": "cell-based", "conditions": "Homo sapiens, 48 h treatment, ± SD, read-out: GI50 in vitro, MES-SA", "description": "Compared with the intrinsic drug resistance, as described above for such cancers as glioblastoma and melanoma, a large variety of tumors can also develop resistance to anticancer drugs resulting in MDR as explained previously. To assess whether the hydroxamates can overcome this resistance mechanism, selected hydroxamates were tested against MDR cells (Table 4). The MDR uterine sarcoma cell line MES-SA/Dx5 was utilized for this experiment. This cell line was established from the parent uterine sarcoma MES-SA, grown in the presence of increasing concentrations of doxorubicin and known to be resistant to a number of P-gp substrates. […] In contrast, there was only a small variation in the sensitivities of the two cell lines towards the hydroxamates indicating their potential to overcome clinical multi-drug resistance.\n(§1) Human cancer cell lines were obtained from the American Type Culture Collection (ATCC, Manassas, Va., USA), the European Collection of Cell Culture (ECACC, Salisbury, UK) and the Deutsche Sammlung von Mikroorganismen and Zellkulturen (DSMZ, Braunschweig, Germany). Human cervical adenocarcinoma HeLa cells were cultured in DMEM supplemented with 10% fetal bovine serum (FBS). Human mammary carcinoma MCF-7 cells were cultured in RPMI supplemented with 10% FBS. The U87 cells (ATCC HTB-14) were cultured in DMEM culture medium, while the A549 cells (DSMZ ACC107) were cultured in RPMI culture medium supplemented with 10% heat-inactivated FBS. The glioblastoma multiforme Hs683 (ATCC HTB-138) and the T98G (ATCC CRL-1690) cell lines were cultivated in DMEM supplemented with 10% FBS. The Human uterine sarcoma MES-SA and MES-SA/Dx5 cells were cultured in RPMI-1640 medium supplemented with 10% FBS with MES SA/Dx5 maintained in the presence of 500 nM Doxorubicin (Sigma). SKMEL-28 cells (ATCC HTB72) and U373 glioblastoma cells (ECACC 08061901) were cultured in RPMI culture medium supplemented with 10% heat-inactivated FBS. Cell culture media were supplemented with 4 mM glutamine (Lonza code BE17-605E), 100 μg/mL gentamicin (Lonza code 17-5182), and penicillin-streptomycin (200 units/ml and 200 μg/ml) (Lonza code 17-602E). Neurosphere culture GBM 031810 was established using known methods and maintained in Neurobasal medium (Invitrogen Carlsbad, Calif.) with B27 supplement (20 ul/ml; Invitrogen), Glutamax (10 ul/ml; Invitrogen), fibroblast growth factor-2 (20 ng/ml; Peprotech, Rocky Hill, N.J., USA), epidermal growth factor (20 ng/ml; Peprotech), heparin (32 IE/ml; Sigma Aldrich, St. Louis, Mo.), and penicillin-streptomycin (1×, Invitrogen). Growth factors and heparin were renewed twice weekly. All cell lines were cultured in T25 flasks, maintained and grown at 37° C., 95% humidity, 5% CO2.\n(§2) Antiproliferative properties of the synthesized compounds were evaluated by the MTT assay. All compounds were dissolved in DMSO at a concentration of either 100 mM or 50 mM prior to cell treatment. The cells were trypsinized and seeded at 4×10^3 cells per well into 96-well plates. The cells were grown for 24 h, treated with compounds at concentrations ranging from 0.001 to 100 μM and incubated for 48 h in 200 μL media. 20 μL of MTT reagent in serum free medium (5 mg/mL) was added to each well and incubated further for 2 h. Media was removed and the resulting formazan crystals were re-solubilized in 200 μL of DMSO. A490 was measured using a Molecular Devices Thermomax plate reader. The experiments were performed in quadruplicate and repeated at least twice for each compound per cell line. Cells treated with 0.1% DMSO were used as a negative control; 1 μM phenyl arsine oxide (PAO) was used as a positive control."}, "[3]": {"test_system": "MES-SA/Dx5 MDR uterine sarcoma cells", "experiment": "MTT antiproliferative assay, MDR MES-SA/Dx5", "type": "cell-based, human", "conditions": "Homo sapiens, MES-SA/Dx5; 48 h treatment, MTT, ± SD; MDR line; read-out: GI50 in vitro, MES-SA/Dx5", "description": "Compared with the intrinsic drug resistance, as described above for such cancers as glioblastoma and melanoma, a large variety of tumors can also develop resistance to anticancer drugs resulting in MDR as explained previously. To assess whether the hydroxamates can overcome this resistance mechanism, selected hydroxamates were tested against MDR cells (Table 4). The MDR uterine sarcoma cell line MES-SA/Dx5 was utilized for this experiment. This cell line was established from the parent uterine sarcoma MES-SA, grown in the presence of increasing concentrations of doxorubicin and known to be resistant to a number of P-gp substrates.\nas §1, §2\nSelection of the MES-SA/Dx5 cell line was done according to W. G. Harker and B. I. Sikic, Cancer Res. 1985, p. 45, 4091. The cells were split and allowed to adhere overnight. […] The cells were maintained at this DOX concentration until their growth rate reached that of the untreated cells."}, "[4]": {"test_system": "A549 non-small-cell-lung cancer cells", "experiment": "MTT antiproliferative assay, A549", "type": "cell-based, human", "description": "As part of the ongoing efforts aimed at identification of compounds active against cancer cells displaying resistance to proapoptotic agents, the selected 2-aryl-2-(3-indolyl)-acetohydroxamates were evaluated for in vitro growth inhibition against a panel of additional cancer cell lines including those resistant to various proapoptotic stimuli, such as human T98G and U87 glioblastoma and human A549 non-small-cell-lung cancer (NSCLC), as well as an apoptosis-sensitive tumor model, such as human Hs683 anaplastic oligodendroglioma, used as a reference. The data reveal that for the most part these compounds retain the single-digit antiproliferatve GI50 values in this challenging cancer cell panel.\nas §1, §2"}}, "data": [{"molecule": "O=C(NO)C(c1ccccc1)c1c(-c2ccc3ccccc3c2)[nH]c2ccccc12", "note": "(centres unmarked) [Compound 3aafa]", "values": [{"measurement": "IC50", "setting": "[1]", "value": "800 ± 600", "unit": "nM"}, {"measurement": "GI50", "setting": "[2]", "value": "2000 ± 200", "unit": "nM"}, {"measurement": "GI50", "setting": "[3]", "value": "4000 ± 1100", "unit": "nM"}, {"measurement": "activity against cell populations resistant to proapoptotic agents, A549", "setting": "[4]; FIG. 3, increasing concentration", "value": "potent growth inhibitory properties against most of the cells"}, {"measurement": "GI50", "setting": "[4]; Homo sapiens, A549, 48 h treatment, MTT, ± SD, read-out: GI50 in vitro, A549", "value": "2800 ± 400", "unit": "nM"}]}]}
